Values of other authors, collected in US20070136825A1, “Fusion proteins useful for detecting analytes” (priority 2001, published 2007).

Settings: glucose; GGBP alone; Zukin et al.; read-out: Kd Binding protein, glucose

Substance: GGBP: glucose/galactose binding protein (mglB, E. coli), SEQ ID NO:4
- Kd: 210 nM
